{
  "source": "patent US9718859B2",
  "about": "“Glycogen synthase kinase-3 inhibitors” (Ramot at Tel-Aviv University Ltd., priority 2013, dated 2017)",
  "key": {"GSK-3β F93A mutant [1]": {"target": "T1, GSK-3β F93A mutant (Homo sapiens, UniProt P49841, F93A)", "T1 construct": "made in house, partially purified on a DE-52 minicolumn", "T1 sequence (P49841 whole entry F93A)": "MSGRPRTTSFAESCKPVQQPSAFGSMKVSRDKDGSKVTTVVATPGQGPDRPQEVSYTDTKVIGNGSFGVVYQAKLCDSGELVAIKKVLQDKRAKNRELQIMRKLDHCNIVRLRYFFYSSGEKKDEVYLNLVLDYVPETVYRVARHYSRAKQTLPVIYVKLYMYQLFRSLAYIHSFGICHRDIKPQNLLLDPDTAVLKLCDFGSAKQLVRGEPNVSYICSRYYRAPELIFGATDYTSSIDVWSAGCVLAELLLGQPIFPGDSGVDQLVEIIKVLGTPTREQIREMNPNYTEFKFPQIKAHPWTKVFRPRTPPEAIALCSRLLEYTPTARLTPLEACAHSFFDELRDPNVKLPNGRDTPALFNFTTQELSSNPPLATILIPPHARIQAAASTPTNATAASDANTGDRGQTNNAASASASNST", "settings": "Licht-Murava et al. 2011; cited from earlier work"}, "GSK-3": {"target": "GSK-3 (Homo sapiens, UniProt P49841)", "sequence (P49841 whole entry)": "as the sequence (P49841 whole entry F93A) above, with A93F counted along it", "settings": "Licht-Murava et al. 2011; cited from earlier work"}, "Aβ loads": {"test_system": "Aβ loads", "experiment": "Congo red staining of Aβ loads in brain sections of 5XFAD mice", "type": "in vivo, mouse", "settings": "intranasal 60 μg/dose for 120 days, FIG. 8B", "procedure": "5XFAD mice were purchased from Jackson laboratory and maintained at an animal house. The 5XFAD mice were randomly assigned to two groups (6 animals each). Treatment started at the age of 2 months, by administering, intranassally, L807-mts (60 μg) (5 μl solution in each nostril) every other day for 120 days. Saline-perfused brains of the tested mice were rapidly excised and frozen in N2. Brains were divided into the two hemispheres: the left hemisphere was taken for immunohistology and the right hemisphere for immunoblot analysis. Coronal brains sections (14 μm) were cut by cryostat at -20° C. Slices at Bregma -1.58 mm were fixed (using 4% PFA) and stained with Congo red dye (Sigma-Aldrich) or with an antigen-retrieval method with anti-Aβ 6E10 antibody (SIG-39300) and visualized by fluorescence microscopy. Quantification of Aβ depositions was done for the whole hippocampus area in a blinded fashion using Imaging Research software from the NIH in an unbiased stereological approach. Mice were scarified and coronal brain sections were stained with congo red dye and Aβ loads were visualized by fluorescence microscopy."}, "5XFAD mice": {"test_system": "5XFAD mice", "experiment": "Contextual fear conditioning test in 5XFAD mice", "type": "in vivo, mouse", "settings": "intranasal, 60 μg/dose every other day for 120 days, FIG. 8A", "procedure": "5XFAD mice were purchased from Jackson laboratory and maintained at an animal house. The 5XFAD mice were randomly assigned to two groups (6 animals each). Treatment started at the age of 2 months, by administering, intranassally, L807-mts (60 μg) (5 μl solution in each nostril) every other day for 120 days.\nA contextual fear conditioning test (FCT) was thereafter conducted as described in Saura et al. (2005) J. Neurosci. 25(29), 6755-6764. Briefly, mice were subjected to an unconditioned electric stimulus (US footshock; 1 s/1 mA) in a training pre-session. Twenty-four hours later, FCT was measured by scoring freezing behavior (the absence of all but respiratory movement) for 180 seconds using a FreezeFrame automated scoring system (Coulbourn Instruments). All experiments were in compliance with protocols approved by the TAU animal care committee.\nMice (two-month old) were treated intranasally with L807-mts (60 μg/dose) for 120 days. At the end of the experiment mice were subjected to the contextual fear conditioning test (FCT), a behavioral test widely used to evaluate associative learning and memory (see, Saura et al. (2005) supra)."}, "GSK-3β (WT) [2]": {"target": "T2, GSK-3β (WT) (Homo sapiens, UniProt P49841)", "T2 construct": "made in house", "experiment": "In vitro kinase assay: inhibition of GSK-3β (WT), pIRS-1 as substrate", "type": "biochemical", "settings": "FIG. 4", "procedure": "Bacterially expressed Purified GSK-3β Wild-Type (WT) was prepared as previously described (Eldar-Finkelman 1996 PNAS).\n(§1) GSK-3β (WT) was incubated with pIRS-1, RREGGMSRPAS(p)VDG (SEQ ID NO:55), as an exemplary substrate, in a reaction mixture (50 mM Tris-HCl, pH 7.3, 10 mM magnesium acetate, and 0.01% β-mercaptoethanol) together with 100 μM 32P[γ-ATP] (0.5 μCi/assay) for 15 minutes. Reactions were stopped by spotting on p81 paper (Whatman), washed with phosphoric acid, and counted for radioactivity as previously described [Ilouz et al. (2006) supra].\nThe ability of the novel peptides described in Example 1 to inhibit GSK-3β was determined by in vitro kinase assays as described hereinabove. The results are presented in FIGS. 2A-B. Substrate phosphorylation obtained in reaction with no inhibitor was defined as 100% (Con), and the results presented are means of two independent experiments each performed in duplicate±SEM."}, "GSK-3β (WT) [3]": {"target": "T2, GSK-3β (WT)", "experiment": "In vitro kinase assay: phosphorylation of the peptide as a substrate by GSK-3β (WT), 32P-γ-ATP", "type": "biochemical", "settings": "WT GSK-3β, FIG. 3 and FIG. 5", "procedure": "as §1\n(§2) In assays conducted with GSK-3 mutant, the GSK-3β proteins (WT or mutant) were incubated with the indicated substrate in a reaction mixture (50 mM Tris-HCl, pH 7.3, 10 mM magnesium acetate, and 0.01% β-mercaptoethanol) together with 100 μM ^32P[γ-ATP] (0.5 μCi/assay) for 15 minutes. Reactions were stopped by spotting on p81 paper (Whatman) washed with phosphoric acid, and counted for radioactivity as previously described [Ilouz et al. (2006) supra]. In assays from cells overexpressing GSK-3 proteins, GSK-3 proteins were partially purified by DE-52 minicolumn and subjected to in vitro kinase assays as described. The activity of the endogenous GSK-3 that was determined in cells transfected with the pCMV4 vector was subtracted from the activity values obtained for WT and mutants.\nThus, in vitro kinase assays as described hereinabove were performed in the presence of pIRS-1 substrate or L807 and phosphorylation was determined. […]"}, "GSK-3β F93A mutant [4]": {"target": "T1, GSK-3β F93A mutant", "experiment": "In vitro kinase assay: inhibition of the GSK-3β F93A mutant, pIRS-1 as substrate", "type": "biochemical", "settings": "FIG. 6", "procedure": "(§3) GSK-3β F93A mutant (in which Phe93 was replaced by alanine) was prepared as described in WO 2012/101599.\nas §2\nIn vitro kinase assays conducted for evaluating the inhibition activity of L807 and pL807 of the F93A mutant were also conducted, using pIRS-1 as a substrate."}, "GSK-3β F93A mutant [5]": {"target": "T1, GSK-3β F93A mutant", "experiment": "In vitro kinase assay: phosphorylation of the peptide as a substrate by the GSK-3β F93A mutant", "type": "biochemical", "settings": "FIG. 5", "procedure": "as §3, §2\nThus, L807 and the substrate pHSF-1 were both tested in in vitro kinase assays as described hereinabove, for the ability of GSK-3β (WT) and its F93A mutant to phosphorylate these peptides."}},
  "note": "Entries after “also recorded” stand apart in the source; their conditions may differ. Square brackets hold non-standard residues; d marks the D form. Ends that are not written are not given here. Peptide text beside a SMILES is read from it. * marks the point of attachment. Myristoyl = CCCCCCCCCCCCCC(=O)*; pS = N[C@@H](COP(=O)(O)O)C(=O)O",
  "data": [
    {"molecule": "RREGGMSRPAS(p)VDG (RREGGMSRPA[pS]VDG) [pIRS-1, GSK-3 substrate peptide from the insulin receptor substrate-1]", "values": [
      {"measurement": "Peptide phosphorylation by F93A mutant (literature)", "setting": "GSK-3β F93A mutant [1]", "value": "not phosphorylated"}
    ]},
    {"molecule": "C[C@H](NC(=O)[C@H](CCC(=O)O)NC(=O)[C@@H](N)CCCCN)C(=O)N1CCC[C@H]1C(=O)N1CCC[C@H]1C(=O)N[C@@H](C)C(=O)N1CCC[C@H]1C(=O)N1CCC[C@H]1C(=O)N[C@@H](CCC(N)=O)C(=O)N[C@@H](COP(=O)(O)O)C(=O)N1CCC[C@H]1C(=O)O", "note": "[L803, KEAPPAPPQS(p)P] (H-KEAPPAPPQ[pS]P-OH; N-terminus and C-terminus assumed)", "values": [
      {"measurement": "Interaction with F93 of GSK-3, binding mode as previously reported", "setting": "GSK-3", "value": "contacts GSK-3 residue F93"}
    ]},
    {"molecule": "CCCCCCCCCCCCCC(=O)NCC(=O)N[C@@H](CCCCN)C(=O)N[C@@H](CCC(=O)O)C(=O)N[C@@H](C)C(=O)N1CCC[C@H]1C(=O)N1CCC[C@H]1C(=O)N[C@@H](CO)C(=O)N1CCC[C@H]1C(=O)N1CCC[C@H]1C(=O)N[C@@H](CCC(N)=O)C(=O)N[C@@H](COP(=O)(O)O)C(=O)N1CCC[C@H]1C(=O)O", "note": "[L807-mts, myristic acid-GKEAPPSPPQS(p)P] (Myristoyl-GKEAPPSPPQ[pS]P-OH; C-terminus assumed)", "values": [
      {"measurement": "Amount and mean sizes of Aβ loads", "setting": "Aβ loads", "value": "largely reduced"},
      {"measurement": "Freezing behavior, performance relative to wild-type (WT) mice", "setting": "5XFAD mice", "value": "up to 81%±14%"}
    ]},
    {"molecule": "KEAPPS(p)PPQS(p)P (KEAPP[pS]PPQ[pS]P) [pL807, double phosphorylated L807]", "values": [
      {"measurement": "Inhibition of GSK-3", "setting": "GSK-3β (WT) [2]", "value": "does not inhibit GSK-3"},
      {"measurement": "Peptide phosphorylation by GSK-3β (substrate or not)", "setting": "GSK-3β (WT) [3]", "value": "is not a substrate of GSK-3"}
    ]},
    {"molecule": "C[C@H](NC(=O)[C@H](CCC(=O)O)NC(=O)[C@@H](N)CCCCN)C(=O)N1CCC[C@H]1C(=O)N1CCC[C@H]1C(=O)N[C@@H](CO)C(=O)N1CCC[C@H]1C(=O)N1CCC[C@H]1C(=O)N[C@@H](CCC(N)=O)C(=O)N[C@@H](COP(=O)(O)O)C(=O)N1CCC[C@H]1C(=O)O", "note": "[L807, KEAPPSPPQS(p)P] (H-KEAPPSPPQ[pS]P-OH; N-terminus and C-terminus assumed)", "values": [
      {"measurement": "Peptide phosphorylation by GSK-3β (substrate or not)", "setting": "GSK-3β (WT) [3]", "value": "is a substrate of GSK-3; also recorded: phosphorylated"},
      {"measurement": "Inhibition of the F93A mutant", "setting": "GSK-3β F93A mutant [4]", "value": "no inhibition"},
      {"measurement": "Peptide phosphorylation by F93A mutant", "setting": "GSK-3β F93A mutant [5]", "value": "phosphorylated"}
    ]}
  ]
}
